Key:
LNCap tumor = conditions: mouse, in vivo
Source text: Ex vivo tumor uptake expressed as percentage injected activitiy per gram of tissue (% lAg) (mean±/−SEM, n=3/group) in LNCap tumor bearing NSG mice following injection of either monomeric [^64Cu]Cu-SarPSMA (2 MBq, 0.9 nmol of peptide) or dimeric [^64Cu]Cu-Sar-bisPSMA (2 MBq, 0.2 nmol of peptide).

PSMA receptor = target: T1, PSMA receptor (Homo sapiens, UniProt Q04609); test: Same-day (Day 0) versus next-day (Day 1) PET imaging of patients; format: in vivo; conditions: ^18F-labelled ligand as SOC
T1 construct: localises at sites that overexpress the PSMA receptor and are indicative of a cancer; from tissue; host or cells: Primary prostate cancer and metastatic lesions (lymph node, bone, prostatic bed) in living patients
T1 sequence (Q04609 whole entry): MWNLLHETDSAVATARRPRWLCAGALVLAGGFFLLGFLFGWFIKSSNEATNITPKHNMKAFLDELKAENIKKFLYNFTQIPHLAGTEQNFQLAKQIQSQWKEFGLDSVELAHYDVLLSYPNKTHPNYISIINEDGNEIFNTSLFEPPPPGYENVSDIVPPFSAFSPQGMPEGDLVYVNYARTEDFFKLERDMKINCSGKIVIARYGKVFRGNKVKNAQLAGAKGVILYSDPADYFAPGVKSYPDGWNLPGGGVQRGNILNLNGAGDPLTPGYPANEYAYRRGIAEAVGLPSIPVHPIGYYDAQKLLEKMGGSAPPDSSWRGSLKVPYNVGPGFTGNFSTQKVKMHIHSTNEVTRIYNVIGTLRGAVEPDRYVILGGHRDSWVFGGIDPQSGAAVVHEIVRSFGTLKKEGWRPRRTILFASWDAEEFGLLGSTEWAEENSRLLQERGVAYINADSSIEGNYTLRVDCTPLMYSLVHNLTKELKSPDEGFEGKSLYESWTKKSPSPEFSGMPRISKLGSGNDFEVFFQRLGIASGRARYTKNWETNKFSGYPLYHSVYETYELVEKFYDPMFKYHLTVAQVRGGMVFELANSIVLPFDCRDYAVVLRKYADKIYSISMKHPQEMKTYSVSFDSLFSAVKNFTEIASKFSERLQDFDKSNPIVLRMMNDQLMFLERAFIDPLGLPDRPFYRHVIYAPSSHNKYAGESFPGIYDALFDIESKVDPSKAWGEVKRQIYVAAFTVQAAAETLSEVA

Compound | Uptake and retention at tumors, dimer versus monomer (FIG. 1) (LNCap tumor) | Screening result on SOC PET/CT (FIG. 9A) (PSMA receptor)
CC12CNCCNCC(NC(=O)CCCC(=O)N[C@H](Cc3ccccc3)C(=O)N[C@H](Cc3ccccc3)C(=O)NCCCCCCCC(=O)NCCCC[C@H](NC(=O)N[C@@H](CCC(=O)O)C(=O)O)C(=O)O)(CNCCNC1)CNCCNC2 [^64Cu-SarPSMA, metal not drawn] | less uptake and retention | –
O=C(O)CC[C@H](NC(=O)N[C@@H](CCCCNC(=O)c1ccc([18F])nc1)C(=O)O)C(=O)O [^18F-DCFPyL, DCFPyL, reference compound] | – | negative/equivocal
